# Assay results taken from US20230293517A1, “ANTAGONIST COMPOUNDS” (AdoRx Therapeutics Limited, priority 2020, published 2023).
# Columns and labels:
# [1] = system: CD8+T cells in human whole blood; assay: Measurement of pCREB in CD8+T cells in human whole blood; type: cell-based; conditions: 3 μM NECA, rolipram
# Outline: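 Heparinised human whole blood pre-incubated 20 min at 37 °C with serially diluted A2a antagonists plus rolipram, then stimulated 60 min with 3 μM NECA (final). After fixation and red-cell lysis, white cells were permeabilized and stained for phospho-CREB and CD8; pCREB in CD8+ T cells measured by flow cytometry.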
# [2] = biological target: human Adenosine A1 receptor (Homo sapiens (Human), UniProt P30542); assay: Adenosine receptor TR-FRET binding assay (A1); conditions: inhibition of binding of 100 nM CA200645, CHO cell membranes
# Outline: (§1)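 CHO cell membranes carrying terbium-tagged human A1, A2a, A2b or A3 receptors were incubated 2 h at room temperature with compound and CA200645 tracer (A2b 30 nM; others 100 nM). Specific binding from time-resolved FRET ratios, minus 10 μM XAC background; IC50 converted to Ki (Cheng–Prusoff).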
# [3] = system: human PBMCs; assay: CD3/CD28 stimulated IL-2 release NECA reversal assay in human PBMCs; type: cell-based; conditions: PBMC, 1 uM NECA, 24 hours, IL-2 in culture supernatant
# Outline: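 PBMCs from citrated healthy-donor blood plated at 50,000 cells/well on 1 ug/ml CD3 antibody with 1 ug/ml CD28 antibody, 1 uM NECA and 0.003-10 μM antagonist (final), 24 h at 37° C. Supernatant IL-2 measured by MSD immunoassay; % inhibition set against no-NECA control wells as 100%.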
# [4] = biological target: human Adenosine A2b receptor (Homo sapiens (Human), UniProt P29275); assay: Adenosine receptor TR-FRET binding assay (A2b); conditions: TR-FRET, inhibition of binding of 30 nM CA200645, CHO cell membranes
# Outline: as §1
# [5] = biological target: human Adenosine A3 receptor (Homo sapiens (Human), UniProt P0DMS8); assay: Adenosine receptor TR-FRET binding assay (A3); conditions: inhibition of binding of 100 nM CA200645, CHO cell membranes
# Outline: as §1
# [6] = biological target: human Adenosine A2a receptor (Homo sapiens (Human), UniProt P29274); assay: Adenosine receptor TR-FRET binding assay (A2a); conditions: inhibition of binding of 100 nM CA200645, CHO cell membranes
# Outline: as §1
# [7] = system: immature monocyte-derived dendritic cells (MoDC); assay: MoDC pCREB assay; type: cell-based, human; conditions: Homo sapiens, Dendritic cell; pCREB in immature MoDC, 1 μM NECA, rolipram
# Description: Monocytes are isolated from human whole blood using CD14 microbeads (Miltenyi Biotec 130-050-201) and differentiated to immature monocyte-derived dendritic cells (MoDC) by culture for 5 days in Mo-DC Differentiation Medium (Miltenyi Biotec 130-094-812). MoDCs are seeded into fresh medium into U bottomed 96 well culture plates and pre-incubated at 37° C. with serial dilutions of A2A/B antagonists for 15 min. At the same time the cells are co-incubated with the phosphodiesterase inhibitor rolipram (final concentration of 20 µM) to amplify the subsequent pCREB response. Adenosine receptor agonist NECA is then added at 1 μM final concentration, leading to an increase in CREB phosphorylation. Following a 45 min incubation at 37° C., the cells are fixed, permeabilized and stained with directly conjugated fluorescent antibodies to phospho-CREB (Alexa Fluor 488), CD209 (PerCP-Cy5.5) and CD86 (APC). Samples are analysed by FACS to measure fluorescence in corresponding channels, and also forward and Side scatter. The population of CD209+/CD86− low cells corresponding to immature dendritic cells is gated for analysis of pCREB levels.
# Approximately 5% of the analysed cells are positive for detection of pCREB in the absence of agonist stimulation, representing the background signalling of all pathways upstream of CREB. Following NECA stimulation this is increased to ˜80% pCREB+ve, and this increase is essentially fully reversible by A2B or dual A2A/B antagonists.
# IC50 is represented as the point of inflection of a sigmoidal curve
# Sequence of human Adenosine A2b receptor (P29275 whole entry): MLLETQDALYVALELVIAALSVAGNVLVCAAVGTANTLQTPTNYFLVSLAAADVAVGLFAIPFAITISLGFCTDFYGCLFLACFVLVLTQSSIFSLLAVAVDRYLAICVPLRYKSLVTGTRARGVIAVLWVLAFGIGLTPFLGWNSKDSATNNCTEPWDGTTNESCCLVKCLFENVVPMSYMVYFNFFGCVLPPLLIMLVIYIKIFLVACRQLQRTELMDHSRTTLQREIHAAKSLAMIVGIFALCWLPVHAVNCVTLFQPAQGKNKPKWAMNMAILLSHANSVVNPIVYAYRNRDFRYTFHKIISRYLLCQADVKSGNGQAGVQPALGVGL
# Sequence of human Adenosine A3 receptor (P0DMS8 whole entry): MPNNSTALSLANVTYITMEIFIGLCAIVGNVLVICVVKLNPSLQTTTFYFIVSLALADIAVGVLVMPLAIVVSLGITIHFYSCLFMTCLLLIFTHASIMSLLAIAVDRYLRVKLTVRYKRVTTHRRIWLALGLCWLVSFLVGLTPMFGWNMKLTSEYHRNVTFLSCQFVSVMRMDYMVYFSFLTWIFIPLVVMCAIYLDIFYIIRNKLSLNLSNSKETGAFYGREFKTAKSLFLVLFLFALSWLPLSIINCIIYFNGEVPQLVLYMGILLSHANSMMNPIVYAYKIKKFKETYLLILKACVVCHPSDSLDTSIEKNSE
# Sequence of human Adenosine A2a receptor (P29274 whole entry): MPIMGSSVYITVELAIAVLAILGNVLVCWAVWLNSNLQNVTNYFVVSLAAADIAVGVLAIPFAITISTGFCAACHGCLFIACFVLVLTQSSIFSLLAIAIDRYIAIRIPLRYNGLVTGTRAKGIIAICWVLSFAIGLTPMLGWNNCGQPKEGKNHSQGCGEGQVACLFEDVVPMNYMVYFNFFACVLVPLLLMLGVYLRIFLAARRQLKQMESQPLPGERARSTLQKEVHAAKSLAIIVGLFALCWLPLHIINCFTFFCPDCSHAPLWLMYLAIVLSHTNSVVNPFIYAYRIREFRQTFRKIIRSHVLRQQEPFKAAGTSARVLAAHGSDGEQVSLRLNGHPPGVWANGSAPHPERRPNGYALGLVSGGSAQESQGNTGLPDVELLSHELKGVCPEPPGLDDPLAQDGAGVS
# Sequence of human Adenosine A1 receptor (P30542 whole entry): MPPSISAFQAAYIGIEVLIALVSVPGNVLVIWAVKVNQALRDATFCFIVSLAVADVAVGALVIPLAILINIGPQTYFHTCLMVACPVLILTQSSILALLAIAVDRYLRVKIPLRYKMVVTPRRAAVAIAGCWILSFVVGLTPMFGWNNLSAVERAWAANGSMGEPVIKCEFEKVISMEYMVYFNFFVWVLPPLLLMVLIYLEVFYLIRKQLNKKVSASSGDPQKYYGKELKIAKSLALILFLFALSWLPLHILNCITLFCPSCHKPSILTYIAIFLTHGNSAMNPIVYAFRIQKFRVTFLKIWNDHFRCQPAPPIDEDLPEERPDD
IC50 [1],Ki [2],Ki [4],Ki [5],Ki [6],IC50 [7],Structure (SMILES),IC50 [3]
990 nM,88 nM,1.5 nM,481 nM,0.64 nM,51 nM,Cc1cc(-c2sc(NC(=O)N3CCN(C)CC3)nc2-c2cccc(C#N)c2)cc(Cl)n1 [Example 3.6],7.5 nM
750 nM,116 nM,0.9 nM,538 nM,0.09 nM,11 nM,Cc1cc(-c2sc(NC(=O)N3CCC(C)(C#N)CC3)nc2-c2cccc(C#N)c2)cc(Cl)n1 [Example 3.8],1 nM
10 nM,11 nM,0.6 nM,145 nM,0.11 nM,15 nM,"Cc1cc(-c2sc(NC(=O)N3CCC(C#N)CC3)nc2-c2cccc(C#N)c2)cc(C)n1 [Example 4.1, 4-Cyano-N-[4-(3-cyanophenyl)-5-(2,6-dimethyl-4-pyridyl)thiazol-2-yl]piperidine-1-carboxamide]",0.3 nM
170 nM,263 nM,4.5 nM,568 nM,0.86 nM,95 nM,"Cc1cc(-c2sc(NC(=O)N3CCN(C4COC4)CC3)nc2-c2cccc(C#N)c2)cc(C)n1 [Example 4.4, N-[4-(3-Cyanophenyl)-5-(2,6-dimethyl-4-pyridyl)thiazol-2-yl]-4-(oxetan-3-yl)piperazine-1-carboxamide]",6.2 nM
40 nM,17 nM,1.5 nM,180 nM,0.37 nM,12 nM,"Cc1cc(-c2sc(NC(=O)N3CC[C@H](C#N)C3)nc2-c2cccc(C#N)c2)cc(C)n1 [Example 4.8, (3S)-3-Cyano-N-[4-(3-cyanophenyl)-5-(2,6-dimethyl-4-pyridyl)thiazol-2-yl]pyrrolidine-1-carboxamide]",1.1 nM
50 nM,9 nM,1.5 nM,133 nM,0.14 nM,26 nM,"Cc1cc(-c2sc(NC(=O)N3CC(C)(O)C3)nc2-c2cccc(C#N)c2)cc(C)n1 [Example 4.9, N-[4-(3-Cyanophenyl)-5-(2,6-dimethyl-4-pyridyl)thiazol-2-yl]-3-hydroxy-3-methyl-azetidine-1-carboxamide]",3.2 nM
50 nM,31 nM,1.1 nM,389 nM,0.26 nM,18 nM,"Cc1cc(-c2sc(NC(=O)N3CC4(COC4)C3)nc2-c2cccc(C#N)c2)cc(C)n1 [Example 4.12, N-[4-(3-Cyanophenyl)-5-(2,6-dimethyl-4-pyridyl)thiazol-2-yl]-2-oxa-6-azaspiro[3.3]heptane-6-carboxamide]",2 nM
110 nM,35 nM,0.9 nM,165 nM,0.1 nM,11 nM,"COC1(C#N)CCN(C(=O)Nc2nc(-c3cccc(C#N)c3)c(-c3cc(C)nc(C)c3)s2)CC1 [Example 4.22, 4-Cyano-N-[4-(3-cyanophenyl)-5-(2,6-dimethyl-4-pyridyl)thiazol-2-yl]-4-methoxy-piperidine-1-carboxamide]",1.1 nM
30 nM,54 nM,0.7 nM,267 nM,0.2 nM,20 nM,"Cc1cc(-c2sc(NC(=O)N3CCC(C#N)(CO)CC3)nc2-c2cccc(C#N)c2)cc(C)n1 [Example 4.23, 4-Cyano-N-[4-(3-cyanophenyl)-5-(2,6-dimethyl-4-pyridyl)thiazol-2-yl]-4-(hydroxymethyl)piperidine-1-carboxamide]",0.6 nM
80 nM,15 nM,2.4 nM,383 nM,0.18 nM,79 nM,"Cc1cc(-c2sc(NC(=O)N3CC[S+]([O-])CC3)nc2-c2cccc(C#N)c2)cc(C)n1 [Example 4.24, N-[4-(3-Cyanophenyl)-5-(2,6-dimethyl-4-pyridyl)thiazol-2-yl]-1-oxo-1,4-thiazinane-4-carboxamide]",2.8 nM
670 nM,135 nM,2.4 nM,77 nM,0.48 nM,10 nM,"Cc1cc(-c2sc(NC(=O)N3CCC4(CC3)C(=O)N(C)C(=O)N4C)nc2-c2cccc(C#N)c2)cc(C)n1 [Example 4.28, N-[4-(3-Cyanophenyl)-5-(2,6-dimethyl-4-pyridyl)thiazol-2-yl]-1,3-dimethyl-2,4-dioxo-1,3,8-triazaspiro[4.5]decane-8-carboxamide]",4.7 nM
70 nM,37 nM,1.1 nM,283 nM,0.12 nM,9 nM,"Cc1cc(-c2sc(NC(=O)N3CCC(C)(C#N)CC3)nc2-c2cccc(C#N)c2)cc(C)n1 [Example 6, 4-Cyano-N-[4-(3-cyanophenyl)-5-(2,6-dimethyl-4-pyridyl)thiazol-2-yl]-4-methyl-piperidine-1-carboxamide]",0.6 nM
600 nM,81 nM,1.3 nM,233 nM,1.44 nM,24 nM,"Cc1cc(-c2sc(NC(=O)N3CCC4(CC3)NC(=O)N(C)C4=O)nc2-c2cccc(C#N)c2)cc(C)n1 [Example 6.6, N-[4-(3-Cyanophenyl)-5-(2,6-dimethyl-4-pyridyl)thiazol-2-yl]-3-methyl-2,4-dioxo-1,3,8-triazaspiro[4.5]decane-8-carboxamide]",8.2 nM
20 nM,14 nM,0.7 nM,281 nM,0.11 nM,7 nM,"Cc1cc(-c2sc(NC(=O)N3CC(C)(C#N)C3)nc2-c2cccc(C#N)c2)cc(C)n1 [Example 6.7, 3-Cyano-N-[4-(3-cyanophenyl)-5-(2,6-dimethyl-4-pyridyl)thiazol-2-yl]-3-methyl-azetidine-1-carboxamide]",0.8 nM
50 nM,–,–,–,–,3 nM,"Cc1cc(-c2sc(NC(=O)N3CC(C)(C#N)C3)nc2-c2cccc(C#N)c2)c(F)c(C)n1 [Example 6.68, 3-Cyano-N-[4-(3-cyanophenyl)-5-(3-fluoro-2,6-dimethyl-4-pyridyl)thiazol-2-yl]-3-methyl-azetidine-1-carboxamide]",3.1 nM
430 nM,–,–,–,–,3 nM,"Cc1cc(-c2sc(NC(=O)N3CCC4(CC3)CNC4=O)nc2-c2cccc(C#N)c2)c(F)c(C)n1 [Example 6.69, N-[4-(3-Cyanophenyl)-5-(3-fluoro-2,6-dimethyl-4-pyridyl)thiazol-2-yl]-3-oxo-2,7-diazaspiro[3.5]nonane-7-carboxamide]",10.9 nM
350 nM,–,–,–,–,83 nM,"Cc1cc(-c2sc(NC(=O)N3CC4(COC4)C3)nc2-c2cccc(C#N)c2C)cc(C)n1 [Example 6.79, N-[4-(3-Cyano-2-methyl-phenyl)-5-(2,6-dimethyl-4-pyridyl)thiazol-2-yl]-2-oxa-6-azaspiro[3.3]heptane-6-carboxamide]",14.5 nM

Structure (SMILES),IC50 [1],Ki [2],Ki [4],Ki [5],Ki [6],IC50 [7],IC50 [3]
"Cc1cc(-c2sc(NC(=O)N3CCC(C#N)(C#N)CC3)nc2-c2cccc(C#N)c2)cc(C)n1 [Example 4.32, 4,4-Dicyano-N-[4-(3-cyanophenyl)-5-(2,6-dimethyl-4-pyridyl)thiazol-2-yl]piperidine-1-carboxamide]",60 nM,26 nM,1.1 nM,457 nM,0.15 nM,14 nM,0.7 nM
